How the values were obtained:
Assay in all cases: relative viability (nuclei count vs DMSO), 5 days (fraction); higher = more cells survive
SGI-1776 + Linsitinib = compound: CN1CCC(CNc2ccc3ncc(-c4cccc(OC(F)(F)F)c4)n3n2)CC1 [SGI-1776] + C[C@]1(O)C[C@@H](c2nc(-c3ccc4ccc(-c5ccccc5)nc4c3)c3c(N)nccn32)C1 [Linsitinib] (partner 1 µM)
Outline: (§1)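 Lung cancer cell lines were pin-tool dosed in 1536-well plates on the day after seeding, with either a lone drug or a fixed anchor-drug dose plus five library-drug doses (not always all listed) in √10 steps. Nuclei were counted on 4× images after 5 days. Relative viability is the ratio of treated-well to vehicle-well nuclei counts, with each value a median of duplicate plates.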

[1] = compound: C1COCCN1C2=NC(=NC3=C2OC4=C3C=CC=N4)C5=CC(=CC=C5)NC(=O)C6=CN=C(C=C6)N + CC(=O)Nc1cccc(-n2c(=O)n(C3CC3)c(=O)c3c(Nc4ccc(I)cc4F)n(C)c(=O)c(C)c32)c1 [Trametinib] (partner 0.02 µM)
Outline: as §1

Entinostat + Foretinib = compound: Nc1ccccc1NC(=O)c1ccc(CNC(=O)OCc2cccnc2)cc1 [Entinostat] + COc1cc2c(Oc3ccc(NC(=O)C4(C(=O)Nc5ccc(F)cc5)CC4)cc3F)ccnc2cc1OCCCN1CCOCC1 [Foretinib] (partner 0.25 µM)
Outline: as §1

[2] = compound: C1COCCN1C2=NC(=NC3=C2OC4=C3C=CC=N4)C5=CC(=CC=C5)NC(=O)C6=CN=C(C=C6)N + CS(=O)(=O)N1CCN(Cc2cc3nc(-c4cccc5[nH]ncc45)nc(N4CCOCC4)c3s2)CC1 [Pictilisib] (partner 1 µM)
Outline: as §1

UMC-11
relative viability (SGI-1776 + Linsitinib; first compound 0.08 µM): 1.06
relative viability (SGI-1776 + Linsitinib; first compound 0.8 µM): 0.987
relative viability (SGI-1776 + Linsitinib; first compound 2.53 µM): 0.971
relative viability (SGI-1776 + Linsitinib; first compound 8 µM): 0.836
relative viability ([1]; first compound 0.02 µM): 0.733
relative viability ([1]; first compound 0.06325 µM): 0.809
relative viability ([1]; first compound 0.2 µM): 0.572
relative viability ([1]; first compound 0.6325 µM): 0.706
relative viability ([1]; first compound 2 µM): 0.614
relative viability (Entinostat + Foretinib; first compound 0.02 µM): 1.22
relative viability (Entinostat + Foretinib; first compound 0.06325 µM): 1.08
relative viability (Entinostat + Foretinib; first compound 0.2 µM): 0.834
relative viability (Entinostat + Foretinib; first compound 0.6325 µM): 0.273
relative viability (Entinostat + Foretinib; first compound 2 µM): 0.201
relative viability ([2]; first compound 0.02 µM): 0.837
relative viability ([2]; first compound 0.06325 µM): 0.875
relative viability ([2]; first compound 0.2 µM): 0.791
relative viability ([2]; first compound 0.6325 µM): 0.776
relative viability ([2]; first compound 2 µM): 0.598

Source: the supplement of paper PMC10307832
